Data: PubChem BioAssay (NCI)
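96-well plates; 48 h exposure; 5 concentrations. Endpoints by linear interpolation between flanking doses. Not reached: highest tested concentration assigned. At the GI50, growth is halved. At the TGI there is no net growth.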

How the values were obtained:
Experiment in all cases: growth of human tumour cells (NCI), 48 h
786-0 renal = system: 786-0 renal
A498 renal = system: A498 renal
A549 NSCLC = system: A549 NSCLC
ACHN renal = system: ACHN renal
CAKI-1 renal = system: CAKI-1 renal
CCRF-CEM leukemia = system: CCRF-CEM leukemia
COLO 205 colon = system: COLO 205 colon
DU-145 prostate = system: DU-145 prostate
HCC-2998 colon = system: HCC-2998 colon
HCT-116 colon = system: HCT-116 colon
HCT-15 colon = system: HCT-15 colon
HL-60(TB) leukemia = system: HL-60(TB) leukemia
HOP-62 NSCLC = system: HOP-62 NSCLC
HOP-92 NSCLC = system: HOP-92 NSCLC
HS 578T breast = system: HS 578T breast
HT29 colon = system: HT29 colon
IGROV1 ovarian = system: IGROV1 ovarian
K-562 leukemia = system: K-562 leukemia
KM12 colon = system: KM12 colon
LOX IMVI melanoma = system: LOX IMVI melanoma
MALME-3M melanoma = system: MALME-3M melanoma
MCF7 breast = system: MCF7 breast
MDA-MB-231 breast = system: MDA-MB-231 breast
MOLT-4 leukemia = system: MOLT-4 leukemia
NCI-H226 lung = system: NCI-H226 lung
NCI-H23 lung = system: NCI-H23 lung
NCI-H460 lung = system: NCI-H460 lung
NCI/ADR-RES ovarian = system: NCI/ADR-RES ovarian
OVCAR-3 ovarian = system: OVCAR-3 ovarian
OVCAR-4 ovarian = system: OVCAR-4 ovarian
OVCAR-5 ovarian = system: OVCAR-5 ovarian
OVCAR-8 ovarian = system: OVCAR-8 ovarian
PC-3 prostate = system: PC-3 prostate
RPMI-8226 leukemia = system: RPMI-8226 leukemia
SF-268 CNS = system: SF-268 CNS
SF-295 CNS = system: SF-295 CNS
SK-MEL-2 melanoma = system: SK-MEL-2 melanoma
SK-MEL-28 melanoma = system: SK-MEL-28 melanoma
SK-MEL-5 melanoma = system: SK-MEL-5 melanoma
SK-OV-3 ovarian = system: SK-OV-3 ovarian
SN12C renal = system: SN12C renal
SNB-19 CNS = system: SNB-19 CNS
SNB-75 CNS = system: SNB-75 CNS
SR leukemia = system: SR leukemia
SW-620 colon = system: SW-620 colon
TK-10 renal = system: TK-10 renal
U251 CNS = system: U251 CNS
UACC-257 melanoma = system: UACC-257 melanoma
UACC-62 melanoma = system: UACC-62 melanoma
UO-31 renal = system: UO-31 renal

With `COc1cc(-c2n[nH]nc2-c2ccc3c(c2)OCCO3)cc(OC)c1OC` the GI50 (786-0 renal) was < 10 nM, the TGI (786-0 renal) was 13500 nM and the GI50 (A498 renal) was 10.4 nM. The TGI (A498 renal) was 1500 nM, the GI50 (A549 NSCLC) was 22.9 nM and the TGI (A549 NSCLC) was 22600 nM. For the same compound, the GI50 (ACHN renal) was < 10 nM, the TGI (ACHN renal) was > 100000 nM and the GI50 (CAKI-1 renal) was < 10 nM. The TGI (CAKI-1 renal) was > 100000 nM, the GI50 (CCRF-CEM leukemia) was 33.7 nM and the TGI (CCRF-CEM leukemia) was > 100000 nM. For the same compound, the GI50 (COLO 205 colon) was 26.7 nM, the TGI (COLO 205 colon) was 77.4 nM and the GI50 (DU-145 prostate) was 25 nM. The TGI (DU-145 prostate) was > 100000 nM, the GI50 (HCC-2998 colon) was 39.4 nM and the TGI (HCC-2998 colon) was 17500 nM. For the same compound, the GI50 (HCT-116 colon) was < 10 nM, the TGI (HCT-116 colon) was 811 nM and the GI50 (HCT-15 colon) was < 10 nM. For the same compound, the TGI (HCT-15 colon) was > 100000 nM, the GI50 (HL-60(TB) leukemia) was 18.9 nM and the TGI (HL-60(TB) leukemia) was 82.4 nM. For the same compound, the GI50 (HOP-62 NSCLC) was 18.2 nM, the TGI (HOP-62 NSCLC) was 19300 nM and the GI50 (HOP-92 NSCLC) was < 10 nM. It also gave a TGI (HOP-92 NSCLC) of 543 nM, a GI50 (HS 578T breast) of 668 nM and a TGI (HS 578T breast) of 64200 nM. It also gave a GI50 (HT29 colon) of 25.3 nM, a TGI (HT29 colon) of 12300 nM and a GI50 (IGROV1 ovarian) of 33.2 nM. The TGI (IGROV1 ovarian) was 30300 nM, the GI50 (K-562 leukemia) was < 10 nM and the TGI (K-562 leukemia) was > 100000 nM. The GI50 (KM12 colon) was < 10 nM, the TGI (KM12 colon) was 11200 nM and the GI50 (LOX IMVI melanoma) was 17.5 nM. For the same compound, the TGI (LOX IMVI melanoma) was 37800 nM, the GI50 (MALME-3M melanoma) was 17600 nM and the TGI (MALME-3M melanoma) was 72300 nM. For the same compound, the GI50 (MCF7 breast) was < 10 nM, the TGI (MCF7 breast) was 37900 nM and the GI50 (MDA-MB-231 breast) was 44.4 nM. The TGI (MDA-MB-231 breast) was > 100000 nM, the GI50 (MOLT-4 leukemia) was 39.9 nM and the TGI (MOLT-4 leukemia) was 11600 nM. It also gave a GI50 (NCI-H226 lung) of 60.9 nM, a TGI (NCI-H226 lung) of 64100 nM and a GI50 (NCI-H23 lung) of 48 nM. The TGI (NCI-H23 lung) was 41700 nM, the GI50 (NCI-H460 lung) was 24.6 nM and the TGI (NCI-H460 lung) was 20000 nM. The GI50 (NCI/ADR-RES ovarian) was < 10 nM, the TGI (NCI/ADR-RES ovarian) was 69700 nM and the GI50 (OVCAR-3 ovarian) was < 10 nM. It also gave a GI50 (OVCAR-4 ovarian) of 33.6 nM, a TGI (OVCAR-4 ovarian) of 57100 nM and a GI50 (OVCAR-5 ovarian) of 2180 nM. For the same compound, the TGI (OVCAR-5 ovarian) was > 100000 nM, the GI50 (OVCAR-8 ovarian) was 41.8 nM and the TGI (OVCAR-8 ovarian) was 35000 nM. The GI50 (PC-3 prostate) was 18.4 nM, the TGI (PC-3 prostate) was 39400 nM and the GI50 (RPMI-8226 leukemia) was 32.5 nM. For the same compound, the TGI (RPMI-8226 leukemia) was 11000 nM, the GI50 (SF-268 CNS) was 68.5 nM and the TGI (SF-268 CNS) was > 100000 nM. For the same compound, the GI50 (SF-295 CNS) was < 10 nM, the TGI (SF-295 CNS) was 42800 nM and the GI50 (SK-MEL-2 melanoma) was < 10 nM. The TGI (SK-MEL-2 melanoma) was 18100 nM, the GI50 (SK-MEL-28 melanoma) was 2880 nM and the TGI (SK-MEL-28 melanoma) was 34800 nM. For the same compound, the GI50 (SK-MEL-5 melanoma) was < 10 nM, the TGI (SK-MEL-5 melanoma) was 166 nM and the GI50 (SK-OV-3 ovarian) was < 10 nM. For the same compound, the TGI (SK-OV-3 ovarian) was 12700 nM, the GI50 (SN12C renal) was 133 nM and the TGI (SN12C renal) was > 100000 nM. The GI50 (SNB-19 CNS) was 29.4 nM, the TGI (SNB-19 CNS) was > 100000 nM and the GI50 (SNB-75 CNS) was < 10 nM. For the same compound, the TGI (SNB-75 CNS) was 21900 nM, the GI50 (SR leukemia) was < 10 nM and the TGI (SR leukemia) was 23900 nM. The GI50 (SW-620 colon) was < 10 nM, the TGI (SW-620 colon) was > 100000 nM and the GI50 (TK-10 renal) was 4570 nM. For the same compound, the TGI (TK-10 renal) was 34600 nM, the GI50 (U251 CNS) was 20.1 nM and the TGI (U251 CNS) was 22700 nM. It also gave a GI50 (UACC-257 melanoma) of 3730 nM, a TGI (UACC-257 melanoma) of 23100 nM and a GI50 (UACC-62 melanoma) of 2280 nM. For the same compound, the TGI (UACC-62 melanoma) was 21200 nM, the GI50 (UO-31 renal) was < 10 nM and the TGI (UO-31 renal) was 24600 nM.
